Results reported in US9085559B2, “Triazine-aryl-bis-indoles and process for preparation thereof” (COUNCIL OF SCIENTIFIC & INDUSTRIAL RESEARCH, priority 2010, dated 2015).
In brackets after ≈: the same amount, converted by molar mass. Several values for one entry are separate records, joined by “and”; a condition that tells them apart may be missing. Equal values may be shown once. Read-outs that look alike come from different tables or passages of the source.

Assays:
[1] = Pharmacokinetic study, oral and i.v. route; assay type: in vivo, swiss mice; conditions: mice; for half-life: read-out: T ½ (converted)
Method: FIG. 6. Pharmacokinetics of IICT-TA67 through oral route. FIG. 7. Pharmacokinetics of IICT-TA67 through intravenous (i.v) route in mice. IICT-TA67 (20 mg/kg) was administered orally (or 10 mg/kg by i.v. route) as a fine suspension in 1% Gum acacia. Blood samples were drawn from retro-orbital plexus at designated times in pre-labeled heparinised tubes and centrifuged (3500 rpm×10 minutes) to obtain the plasma. Blood samples were collected at 0, 5, 15 and 30 min, and 1, 2, 4, 6, 8, 16 and 24 hrs post-administration after oral/iv route. HPLC determinations were done on Shimadzu chromatograph (Model: LC-10 Atvp equipped with a diode array detector). The Molecule ICT-TA67 was determined at 276 nm using RP-18 column (5 μm×25 cm). Mobile phase consisted of acetonitrile: water (55:45) with a flow rate of 1.0 ml/min.
Animals. Healthy swiss mice of both the sexes (25-30) were used. The animals were kept (3/cage) under controlled conditions (temp 26±2° C.; relative humidity 50±5%; 12 h light/dark cycle) and maintained on pelleted rodent diet (Ashirwad Industries Ltd. Chandigarh, India). Water was provided ad libitum. Institutional Animal Ethics committee approved the animal experiments. Animals were fasted for 16 hours before use.
Step 1: Dosing: IICT-TA67 (20 mg/kg) was administered orally (or 10 mg/kg by i.v.route) as a fine suspension in 1% Gum acacia. Blood samples were drawn from retro-orbital plexus at designated times in pre-labeled heparinised tubes and centrifuged (3500 rpm×10 minutes) to obtain the plasma. Blood samples were collected at 0, 5, 15 and 30 min, and 1, 2, 4, 6, 8, 16 and 24 hrs post-administration after oral/iv route.
Step 2: HPLC determinations: Aliquots of plasma were mixed with acetonitrile (1:2), vortexed for two minutes (2500 rpm) and centrifuge at 5000 rpm for 10 min. The organic layer was collected and evaporated to dryness using solvent evaporator (Model: SPD 111V, Thermo Electron Corporation, MA). The dried samples were reconstituted in mobile phase for HPLC analysis. In a similar manner samples were also prepared from aliquots of plasma collected from untreated animals which were spiked with molecule 67 (0.25 μg-10 μg/ml). […] Reproducibility of the method was defined by both intra-, and inter-day variance. The retention time of Mol. 67 was 10.688 min, at which no other interfering peak was observed. The lower limit of detection (LOD) was 11 ng/ml; limit of quantitation (LOQ) was 32 ng/ml; recovery was 90±2%.
HPLC determinations were done on Shimadzu chromatograph (Model: LC-10 Atvp equipped with a diode array detector). Molecule 67 was determined at 276 nm using RP-18 column (5 μm×25 cm). Mobile phase consisted of acetonitrile: water (55:45) with a flow rate of 1.0 ml/min.
Step 3: Calculating Bioavailability indices: A concentration-time curve for Molecule 67 was established and pharmacokinetic parameters AUC, Cmax, and tmax were determined by a non-compartmental analysis using TOPFIT software package. Absolute bioavailability was determined using the following formula: AUCoral×doseiv/AUCiv×Doseoral.

[2] = tested on: Intercellular Adhesion Molecule type 1 (ICAM-1); experiment: Cell-ELISA, TNF-α induced ICAM-1 expression on HUVECs; assay type: cell-based; conditions: Homo sapiens, HUVEC; HUVECs pretreated 2 hours, TNF-α 16 hours
Method: (§1) FIG. 4. Inhibition of TNF-α induced expression Intercellular Adhesion Molecule type 1 (ICAM-1) and Vascular Cell Adhesion Molecule type 1 (VCAM-1) on HUVECs by IICT-TA67. To determine the effect of IICT-TA67 on TNF-α induced cell adhesion molecules such as ICAM-1 and VCAM-1, HUVECs were pretreated with various concentrations of IICT-TA67 for 2 hours followed by induction with TNF-α for 16 hours. The cell surface expression of cell adhesion molecules was measured by ELISA.
(§2) Cell-ELISA was used for measuring the expression of ICAM-1 on surface of endothelial cells. Endothelial cells were incubated with or without IICT-TA67 at desired concentrations for the required period, followed by treatment with TNF-α (10 ng/ml) for 16 h for ICAM-1 and VCAM-1 expression. The cells were fixed with 1.0% glutaraldehyde. Non-specific binding of antibody was blocked by using skimmed milk (3.0% in PBS). Cells were incubated overnight at 4° C. with anti-ICAM-1 mAb anti-VCAM-1 antibody, diluted in blocking buffer, the cells were further washed with PBS and incubated with peroxidase-conjugated goat anti-mouse secondary Abs. […] Reaction was stopped by the addition of 2 N sulfuric acid and absorbance at 490 nm was measured using microplate reader (Spectramax 190, Molecular Devices, USA).

[3] = tested on: Vascular Cell Adhesion Molecule type 1 (VCAM-1); experiment: Cell-ELISA, TNF-α induced VCAM-1 expression on HUVECs; assay type: cell-based; conditions: Homo sapiens, HUVEC; HUVECs pretreated 2 hours, TNF-α 16 hours
Method: as §1, §2

[4] = both sexes, Swiss, mouse, plasma, iv, 10 mg/kg
[5] = both sexes, Swiss, mouse, plasma, oral, 20 mg/kg

`COc1ccc(C(c2[nH]c3ccccc3c2CC(=O)O)c2[nH]c3ccccc3c2CC(=O)O)cc1Oc1nc(NC2CC2)nc(NC2CC2)n1` [Compound 7, 2,2′-[2,2′-3-(4,6-bis-cyclopropylamino)-1,3,5-triazin-2-yl-oxy-4-methoxy-phenyl]-methylene-bis-(1H-indole-3,3-diyl)-diacetic acid] showed a Tmax [1, 4] of 0.167 h, a half-life ([1]; both sexes, Swiss, mouse, plasma, iv, 10 mg/kg, i.v., 10 mg/kg) of 55.8 min and an AUC [1, 4] of 358 ng·h/mL. For the same compound, the Cmax [1, 4] was 332 ng/mL, the clearance [1, 4] was 466 mL/min and 466 mL/min/kg and the AUC(0-t) ([1]; both sexes, Swiss, mouse, plasma, iv, 10 mg/kg (Table 2)) was 358 ng·h/mL. The Vd ([1]; both sexes, Swiss, mouse, plasma, iv, i.v., 10 mg/kg, read-out: Vd) was 37.5 L and 37.5 L/kg, the bioavailability ([1]; both sexes, Swiss, mouse, plasma, oral, AUCoral×doseiv/AUCiv×Doseoral, read-out: Absolute bioavailability (F)) was 70.3% and the Tmax ([1]; both sexes, Swiss, mouse, plasma, po, 20 mg/kg) was 3 h. The Tmax ([1]; both sexes, Swiss, mouse, plasma, po, 20 mg/kg, 20 mg/kg (Table 2)) was 2 h, the half-life ([1]; both sexes, Swiss, mouse, plasma, po, 20 mg/kg, oral, 20 mg/kg) was 256 min and the AUC [1, 5] was 503 ng·h/mL. The Cmax [1, 5] was 107 ng/mL, the AUC(0-t) ([1]; both sexes, Swiss, mouse, plasma, oral, 20 mg/kg (Table 2)) was 503 ng·h/mL and the “T ½” value ([1]; i.v., 10 mg/kg, listed as IICT-TA67, 10 mg/kg) was 1.5 h. It also gave a Vd ([1]; oral, 20 mg/kg, listed as TA-67, 20 mg/kg) of 474 L, an IC50 [2] of 10.6 µg/mL (≈ 15.7 µM) and an IC50 [3] of 16.6 µg/mL (≈ 24.6 µM).
